Laboratory results published in patent publication US5493007A, “Platelet aggregation inhibitors having high specificity for GPIIBIIIA” (Genentech, Inc., priority 1994, dated 1996).
Values joined by “and” are separate entries in the source; they are usually repeats but may differ in a detail not shown here. Identical values can stand only once. Where a SMILES comes first, the peptide text is derived from it. Bridges are numbered along the chain shown (N, C = ends). [ ]: non-standard residue; d: D form. The star is where a group is joined. Aad = N[C@@H](CCCC(=O)O)C(=O)O; Pen = CC(C)(S)[C@H](N)C(=O)O; dOrn = NCCC[C@@H](N)C(=O)O; Orn = NCCC[C@H](N)C(=O)O; NH(CH2)5NH2 = NCCCCCN*; NH(CH2)4NH2 = NCCCCN*; NH(CH2)3NH2 = NCCCN*; Ava = NCCCCC(=O)O

Tests used:
[1] = molecular target: T1, Vitronectin Receptor (αvβ3) (Homo sapiens, UniProt P05106+P06756); test: Human Vitronectin-Vitronectin Receptor (αvβ3) ELISA Assay; type: binding; conditions: purified human αvβ3, vitronectin-coated plates; read-out: ELISA IC50 Vitronectin VnR
T1 construct: Human vitronection receptor (VnR) is purified from human placenta; from tissue; host or cells: human placenta
Source text: Human vitronectin (Vn) is isolated from human plasma and purified by affinity chromatography by the method of Yatohgo et. al., (Cell Structure and Function 13:281-292 [1988]).
Human vitronection receptor (VnR) is purified from human placenta by the method of Pytela et al., (Methods Enzymol., 144:475 [1987]). Alternatively the αvβ3 receptor can be purified from some cell lines (e.g., human embryonic kidney 293 cells) transfected with DNA sequences for both the αv and β3 subunits. The subunits are purified by employing octylglucoside extraction followed by Con-A, Heparin-Sepharose, and S-300 Chromatography.
Anti-GP IIb IIIa monoclonal antibodies specific for human GP IIIa are prepared by the method of Newman et al. (Blood, 65:227-232 [1985]), or a similar procedure. This mouse Mab is specific for the β3 subunit of the vitronectin receptor.
Rabbit Fab 2 anti-mouse Fc fragment horse radish peroxidase conjugate (anti-MuFc HRP) is obtained from PelFreeze (cat. no. 715305-1).
Maxisorp microtiter plates are coated with 2 μg/ml human vitronectin dissolved in PBS ([…]) and stored overnight at 4° C. The plates are washed two times with PBS-0.05% Tween-20 (wash buffer) and blocked by incubating with about 150 μl/well of assay buffer (1%, BSA [RIA grade or better] in 50 mM Tris-HCl, 100 mM NaCl, 1 mM MgCl2, CaCl2, MnCl2 pH 7.4) for 60 minutes. Dilutions of standards are prepared and putative inhibitors (Table 3) are dissolved in assay buffer. The blocked plates are emptied and 25 μl/well of inhibitor or standard solution is added to each well. Twenty-five μl of a 30 μg/ml solution of purified αvβ3 in assay buffer is pipetted into the coated plate. The final concentration of receptor in the assay well is about 15 μg/ml. The plate is incubated on a shaker for 60 minutes. Meanwhile, for each microtite plate, 6 ml buffer solution containing 1.5 μg/ml of mouse monoclonal antibody specific for β3 is prepared. To this solution is added μl of the secondary antibody, which is anti-mouse-Fc-HRP antibody conjugate. For example, for one plate, prepare 6 ml of a 1.5 μg/ml mouse Mab solution to which is added 1 μl of anti-mouse-Fc-HRP antibody stock, (this represents a 1:6000 dilution of the antibody - HRP conjugate). This mixture is allowed to incubate during the receptor-inhibitor incubation. The assay plates are washed 4 times with PBS-Tween and 50 μl/well of the antibody mixture is then pipetted into the plate for a 60 minute incubation. The plate is washed 4 times and the color reaction is developed with 50 μl/well of 0.67 mg/ml o-phenyldiamine in PBS containing 0.012% H2 O2. Alternatively, 16 mM citric acid, 50 mM Na2 PO4 at pH 5.0 can be used as a substrate buffer. The reaction is stopped with 50 μl/well 1M H2 SO4. The plates are read at 492-405 nm and the data analyzed by four-parameter fit.

[2] = system: New Zealand White rabbits; test: Rabbit cutaneous bleeding time (CBT); conditions: for Rabbit BT Ratio: Example 1, at the % P.A. inhibition given
Method: Unanesthetized male New Zealand White rabbits (2.5-3.5 kg) are placed in a standard rabbit restrainer. Ears are shaved and a 20 G Teflon catheter with flowswitch (Viggo) is placed in the medial artery, flushed with saline and locked with 1 ml of heparinized saline (10 m/ml). A 22 G catheter (Abbott) fitted with an injection cap (Medex) is placed in the marginal vein of the same ear. Saline or a GP IIb IIIa receptor antagonist, at a concentration of 1 to 3 mg/ml, is infused via the venous catheter. At time 0, 41% of the dose is given as a bolus over 2 minutes. The remainder is continuously infused over the following 60 minutes. Blood samples (3.2 ml) are collected into syringes without needles via the arterial catheter at -10, -5, 10, 45, and 60 minutes. The first 0.5 ml is discarded and the following 2.7 ml is collected directly into a syringe containing 0.3 ml of 3.8% sodium citrate. The sample is divided into 1.5 ml aliquots and centrifuged at room temperature for 5 seconds at 12,000 G. The resulting platelet rich plasma (PRP) is used to measure ex-vivo platelet aggregation (XPA). At -10 and 60 minutes an additional 1 cml sample is drawn for an automated blood count (Baker instruments). Catheters are flushed and locked after every sample.
CBT is measured at -10, -5, 10, and 45 minutes on the opposite ear, using an automated incision-making instrument (Surgicutt®, ITD). An incision (5mm×1 mm deep) is made on the dorsal surface of the ear at sites not supplied by major blood vessels. Blood is blotted away with absorbent paper placed near the incision site, every 2 to 15 seconds, to a maximum of 15 minutes. Cessation of bleeding is defined as no blood forming at the incision site for 15 seconds. The range of duplicate CBT in 40 normal rabbits was 0.88 to 3.38 minutes.

Fibronectin Receptor = Fibronectin Receptor (Homo sapiens, UniProt P05556+P08648); test: Human Fibronectin-Fibronectin Receptor ELISA Assay; type: binding; set-up: octylglucoside (OG) extracted human placenta; from tissue; host or cells: human placenta; conditions: human placenta fibronectin receptor, fibronectin-coated plates; read-out: ELISA IC50 Fibronectin FnR
Method: Fibronectin receptor is purified according to the procedures of Pytela et al., (Methods Enzymol. 144:475 […]). Briefly, fibronectin receptor is purified employing an Arg-Gly-Asp affinity chromatography from (100 mM) octylglucoside (OG) extracted human placenta. The OG extract is filtered over Sepharose 6B GRGDSPK column. The column is washed three times with three column volumes of Tris-buffered saline (TBS) TBS, 1 mM CaCl2, and 25 mM OG. The receptor is eluted with TBS, 20 mM EDTA, and 25 mM Octyl thioglucoside, and is stored in 1 mM CaCl2, 1 mM MgCl2, at -80° C.
Microtiter plates are coated with 110 μl human fibronectin (at 2 μg/ml) in TBS. Plates are washed three times with TBS containing 0.05% Tween 20. Test inhibitors are then added after washing in 10 microliter aliquots. The fibronectin receptor is added in 2-fold serial dilutions with TBS containing 20 mM octyl glucoside and 2 mM MnCl2. Plates are incubated three hours at room temperature, and washed with 200 μl TBS-Tween 20 buffer. 100 μl of affinity-purffied rabbit anti-human fibronectin receptor antibody is added to the wells and the plates are incubated two hours, washed twice with TBS-Tween and once with distilled water. Affinity-purified goat anti-rabbit IgG conjugated to horseradish peroxidase (100 μl) is added to each well followed by incubation for 60 minutes at room temperature. Plates are again washed twice with TBS-Tween and distilled water. 100 μl of substrate mixture (10 mg o-phenylenediamine in 25 ml 0.1M citrate-phosphate buffer, pH 5.0 6 μ30% H2 O2) is added to the plates and allowed to develop. The development process is stopped by adding 50 μl of 4N H2 SO4 to each well and read at […].

T1 sequence (P06756 31-889 limits assumed): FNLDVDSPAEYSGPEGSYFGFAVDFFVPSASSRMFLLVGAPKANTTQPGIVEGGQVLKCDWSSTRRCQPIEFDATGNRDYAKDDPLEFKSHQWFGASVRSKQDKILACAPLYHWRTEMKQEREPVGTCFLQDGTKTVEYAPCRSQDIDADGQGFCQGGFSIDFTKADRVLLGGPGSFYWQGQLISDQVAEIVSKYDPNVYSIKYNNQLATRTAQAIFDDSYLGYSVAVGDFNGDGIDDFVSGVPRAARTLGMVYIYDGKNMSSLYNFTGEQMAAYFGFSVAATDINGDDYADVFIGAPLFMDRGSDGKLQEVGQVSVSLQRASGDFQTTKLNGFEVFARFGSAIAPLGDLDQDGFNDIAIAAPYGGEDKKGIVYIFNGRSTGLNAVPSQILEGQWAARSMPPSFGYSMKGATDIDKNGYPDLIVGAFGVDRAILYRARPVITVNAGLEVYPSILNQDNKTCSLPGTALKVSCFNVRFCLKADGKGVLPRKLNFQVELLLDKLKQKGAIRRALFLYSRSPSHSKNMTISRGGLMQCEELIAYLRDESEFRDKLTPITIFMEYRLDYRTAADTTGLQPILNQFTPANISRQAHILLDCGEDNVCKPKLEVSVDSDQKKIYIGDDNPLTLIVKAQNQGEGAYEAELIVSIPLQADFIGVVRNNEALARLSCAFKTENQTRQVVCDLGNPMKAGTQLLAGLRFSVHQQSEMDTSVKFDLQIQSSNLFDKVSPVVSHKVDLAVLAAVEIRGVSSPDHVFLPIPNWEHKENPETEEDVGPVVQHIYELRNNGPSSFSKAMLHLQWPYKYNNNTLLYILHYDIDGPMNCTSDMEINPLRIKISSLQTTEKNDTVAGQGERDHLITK
T1 sequence (P06756 891-1048 partner limits assumed): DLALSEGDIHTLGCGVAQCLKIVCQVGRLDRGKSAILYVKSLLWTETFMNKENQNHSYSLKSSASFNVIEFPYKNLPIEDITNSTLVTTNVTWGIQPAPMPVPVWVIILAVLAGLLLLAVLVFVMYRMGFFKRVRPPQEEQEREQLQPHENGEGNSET
T1 sequence (P05106 27-788): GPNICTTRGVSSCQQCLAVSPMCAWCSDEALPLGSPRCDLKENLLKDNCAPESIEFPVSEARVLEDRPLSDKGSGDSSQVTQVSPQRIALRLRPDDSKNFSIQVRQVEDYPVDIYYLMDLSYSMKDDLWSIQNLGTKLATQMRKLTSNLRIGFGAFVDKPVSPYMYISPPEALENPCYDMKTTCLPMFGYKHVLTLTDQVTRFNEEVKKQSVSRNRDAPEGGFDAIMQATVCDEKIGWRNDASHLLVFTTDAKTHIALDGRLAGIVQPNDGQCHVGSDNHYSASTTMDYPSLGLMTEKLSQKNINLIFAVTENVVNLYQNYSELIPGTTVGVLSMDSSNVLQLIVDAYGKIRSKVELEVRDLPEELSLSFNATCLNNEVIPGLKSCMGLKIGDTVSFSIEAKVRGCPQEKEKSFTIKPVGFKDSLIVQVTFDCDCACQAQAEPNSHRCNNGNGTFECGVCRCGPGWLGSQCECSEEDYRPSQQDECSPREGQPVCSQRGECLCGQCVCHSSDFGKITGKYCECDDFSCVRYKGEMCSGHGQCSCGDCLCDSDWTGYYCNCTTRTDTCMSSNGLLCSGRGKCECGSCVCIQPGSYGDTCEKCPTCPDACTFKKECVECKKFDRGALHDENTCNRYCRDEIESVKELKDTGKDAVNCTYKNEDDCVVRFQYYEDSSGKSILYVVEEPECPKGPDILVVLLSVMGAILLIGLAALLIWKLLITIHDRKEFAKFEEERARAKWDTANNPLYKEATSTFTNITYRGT
Chain of Fibronectin Receptor (P08648 42-894 limits assumed): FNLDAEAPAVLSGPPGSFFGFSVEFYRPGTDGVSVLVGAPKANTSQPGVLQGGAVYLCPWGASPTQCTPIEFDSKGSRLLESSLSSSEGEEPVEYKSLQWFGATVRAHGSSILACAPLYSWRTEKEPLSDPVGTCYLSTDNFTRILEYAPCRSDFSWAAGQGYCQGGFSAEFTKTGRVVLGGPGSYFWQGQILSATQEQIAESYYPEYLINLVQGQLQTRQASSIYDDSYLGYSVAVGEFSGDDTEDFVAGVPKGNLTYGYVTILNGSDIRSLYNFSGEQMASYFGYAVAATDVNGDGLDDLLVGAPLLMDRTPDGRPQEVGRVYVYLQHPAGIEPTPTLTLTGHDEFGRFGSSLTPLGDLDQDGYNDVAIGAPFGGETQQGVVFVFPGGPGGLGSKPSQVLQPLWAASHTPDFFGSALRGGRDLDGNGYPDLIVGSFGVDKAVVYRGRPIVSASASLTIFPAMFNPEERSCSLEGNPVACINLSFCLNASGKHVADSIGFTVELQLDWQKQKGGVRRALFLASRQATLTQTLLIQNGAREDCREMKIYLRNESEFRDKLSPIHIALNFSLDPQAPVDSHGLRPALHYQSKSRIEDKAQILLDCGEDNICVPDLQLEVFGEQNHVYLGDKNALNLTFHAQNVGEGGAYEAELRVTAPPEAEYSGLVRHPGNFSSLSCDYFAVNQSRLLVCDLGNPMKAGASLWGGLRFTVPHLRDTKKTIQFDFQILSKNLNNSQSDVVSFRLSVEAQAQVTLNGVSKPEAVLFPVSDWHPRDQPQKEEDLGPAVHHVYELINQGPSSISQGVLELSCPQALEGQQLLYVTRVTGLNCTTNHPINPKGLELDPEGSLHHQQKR
Chain of Fibronectin Receptor (P08648 895-1049 partner limits assumed): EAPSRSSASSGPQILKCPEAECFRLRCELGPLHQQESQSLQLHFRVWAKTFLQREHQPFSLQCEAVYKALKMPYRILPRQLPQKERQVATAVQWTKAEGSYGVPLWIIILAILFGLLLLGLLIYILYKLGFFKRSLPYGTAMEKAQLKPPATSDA
Chain of Fibronectin Receptor (P05556 21-798): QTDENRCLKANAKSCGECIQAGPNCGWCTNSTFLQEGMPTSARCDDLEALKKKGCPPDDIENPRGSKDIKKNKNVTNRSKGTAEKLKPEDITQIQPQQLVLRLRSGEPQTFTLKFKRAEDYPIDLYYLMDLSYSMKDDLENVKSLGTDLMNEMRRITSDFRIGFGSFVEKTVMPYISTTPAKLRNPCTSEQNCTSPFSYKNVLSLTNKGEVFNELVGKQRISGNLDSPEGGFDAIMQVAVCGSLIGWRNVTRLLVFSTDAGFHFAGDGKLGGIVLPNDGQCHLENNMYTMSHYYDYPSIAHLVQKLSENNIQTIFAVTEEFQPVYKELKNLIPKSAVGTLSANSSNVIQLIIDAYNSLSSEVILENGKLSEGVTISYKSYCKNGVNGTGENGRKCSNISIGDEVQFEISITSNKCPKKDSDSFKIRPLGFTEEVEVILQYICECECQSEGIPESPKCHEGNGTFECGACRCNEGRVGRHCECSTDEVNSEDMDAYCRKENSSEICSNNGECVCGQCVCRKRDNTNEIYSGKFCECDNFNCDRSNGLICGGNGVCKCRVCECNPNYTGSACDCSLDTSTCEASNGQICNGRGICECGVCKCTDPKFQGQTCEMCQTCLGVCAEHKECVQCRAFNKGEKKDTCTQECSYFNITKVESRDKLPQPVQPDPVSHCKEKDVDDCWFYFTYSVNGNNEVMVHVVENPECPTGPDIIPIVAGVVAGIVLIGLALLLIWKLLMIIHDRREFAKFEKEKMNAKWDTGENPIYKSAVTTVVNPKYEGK

Compound	IC50 [1] [nM]	Rabbit BT Ratio [2]	IC50 (Fibronectin Receptor) [nM]	cutaneous bleeding time, result in words [2]	increase in cutaneous bleeding time ([2]; dosed to 95% inhibition of platelet aggregation) [times]
N=C(N)NCCC[C@@H]1NC(=O)[C@@H](Cc2ccc(O)cc2)NC(=O)CCC[C@@H](C(=O)N[C@@H](CCCCN)C(N)=O)NC(=O)[C@H](CC(=O)O)NC(=O)CNC1=O [10/20, cyclo(1-5)dTyr--Arg--Gly--Asp--L-α-aminoadipic acid-Lys--NH2] ([dY]RGD[Aad]K-NH2; lactam N-5)	20	2,0	2310		
CC1(C)SCC(=O)N[C@H](Cc2ccc(O)cc2)C(=O)N[C@@H](CCCCN)C(=O)NCC(=O)N[C@@H](CC(=O)O)C(=O)N[C@@H]1C(=O)N[C@@H](CCCNC(=N)N)C(N)=O [7/16, cyclo-S-acetyl-dTyr--Lys--Gly--Asp--Pen--Arg--NH2] ({CH2CO}-[dY]KGD[Pen]R-NH2; thioether N-5)	120000		> 10000	without substantial increased cutaneous bleeding time	
N=C(N)NCCC[C@@H]1NC(=O)[C@@H](Cc2ccc(O)cc2)NC(=O)CSC[C@@H](C(=O)NCCCCCN)NC(=O)[C@H](CC(=O)O)NC(=O)CNC1=O [8/13, cyclo-S-acetyl-dTyr--Arg--Gly--Asp--Cys--NH--X (X = pentylamine)] ({CH2CO}-[dY]RGDC-{NH(CH2)5NH2}; thioether N-5)	32	1.13	473		
N=C(N)NCCC[C@@H]1NC(=O)[C@@H](Cc2ccc(O)cc2)NC(=O)CSC[C@@H](C(=O)NCCCCC(=O)O)NC(=O)[C@H](CC(=O)O)NC(=O)CNC1=O [7/28, cyclo-S-(1-5)-dTyr--Arg--Gly--Asp--Cys--X (X = aminovaleric acid)] ({CH2CO}-[dY]RGDC[Ava]-OH; thioether N-5)	650				
N=C(N)NCCC[C@@H]1NC(=O)[C@@H](Cc2ccc(O)cc2)NC(=O)CSC[C@@H](C(=O)NCCCN)NC(=O)[C@H](CC(=O)O)NC(=O)CNC1=O [8/22, cyclo-S-acetyl-dTyr--Arg--Gly--Asp--Cys--NH--X (X = propyl amine)] ({CH2CO}-[dY]RGDC-{NH(CH2)3NH2}; thioether N-5)	36	1.27	176		
N=C(N)NCCC[C@@H]1NC(=O)[C@@H](Cc2ccc(O)cc2)NC(=O)C(CCCCN)SC[C@@H](C(=O)O)NC(=O)[C@H](CC(=O)O)NC(=O)CNC1=O (single isomer, unassigned) [9/10, cyclo-S-2-L-(6-aminocaproyl)-Lys--dTyr--Arg--Gly--Asp--Cys--OH]	9.6	8.17	2		
N=C(N)NCCC[C@@H]1NC(=O)[C@@H](Cc2ccc(O)cc2)NC(=O)CSC[C@@H](C(=O)N[C@@H](CCCN)C(N)=O)NC(=O)[C@H](CC(=O)O)NC(=O)CNC1=O [7/5, cyclo-S-acetyl-dTyr--Arg--Gly--Asp--Cys--Orn--NH2] ({CH2CO}-[dY]RGDC[Orn]-NH2; thioether N-5)	45	1.26	63		
N=C(N)NCCC[C@@H]1NC(=O)[C@@H](Cc2ccc(O)cc2)NC(=O)CSC[C@@H](C(=O)N[C@H](CCCNC(=N)N)C(N)=O)NC(=O)[C@H](CC(=O)O)NC(=O)CNC1=O [7/2, cyclo-S-acetyl-dTyr--Arg--Gly--Asp--Cys--dArg--NH2] ({CH2CO}-[dY]RGDC[dR]-NH2; thioether N-5)	22		42		
N=C(N)NCCC[C@@H]1NC(=O)[C@@H](Cc2ccc(O)cc2)NC(=O)CSC[C@@H](C(=O)N[C@@H](CCCCN)C(N)=O)NC(=O)[C@H](CC(=O)O)NC(=O)CNC1=O [7/3, cyclo-S-acetyl-dTyr--Arg--Gly--Asp--Cys--Lys--NH2] ({CH2CO}-[dY]RGDCK-NH2; thioether N-5)	60	1.95	201		1.95
N=C(N)NCCC[C@@H]1NC(=O)[C@@H](Cc2ccc(O)cc2)NC(=O)CSC[C@@H](C(=O)N[C@H](CCCCN)C(N)=O)NC(=O)[C@H](CC(=O)O)NC(=O)CNC1=O [7/4, cyclo-S-acetyl-dTyr--Arg--Gly--Asp--Cys--dLys--NH2] ({CH2CO}-[dY]RGDC[dK]-NH2; thioether N-5)	17		66		
N=C(N)NCCC[C@@H]1NC(=O)[C@@H](Cc2ccc(O)cc2)NC(=O)CSC[C@@H](C(=O)N[C@@H](CCC(N)=O)C(N)=O)NC(=O)[C@H](CC(=O)O)NC(=O)CNC1=O [7/27, cyclo-S-acetyl-dTyr--Arg--Gly--Asp--Cys--Gln--NH2] ({CH2CO}-[dY]RGDCQ-NH2; thioether N-5)	49	0.77 and 0.93		did not increase cutaneous blood time	
N=C(N)NCCC[C@@H]1NC(=O)[C@@H](Cc2ccc(O)cc2)NC(=O)CSC[C@@H](C(=O)N[C@H](CCCN)C(N)=O)NC(=O)[C@H](CC(=O)O)NC(=O)CNC1=O [7/6, cyclo-S-acetyl-dTyr--Arg--Gly--Asp--Cys--dOrn--NH2] ({CH2CO}-[dY]RGDC[dOrn]-NH2; thioether N-5)	55		161		
N=C(N)NCCC[C@H](NC(=O)[C@@H]1CCCC(=O)N[C@H](Cc2ccc(O)cc2)C(=O)N[C@@H](CCCNC(=N)N)C(=O)NCC(=O)N[C@@H](CC(=O)O)C(=O)N1)C(N)=O [10/19, cyclo(1-5)dTyr--Arg--Gly--Asp--L-α-aminoadipic acid-Arg--NH2] ([dY]RGD[Aad]R-NH2; lactam N-5)	32		745		
N=C(N)NCCC[C@@H]1NC(=O)[C@@H](Cc2ccc(O)cc2)NC(=O)C(CCCCN)SC[C@@H](C(=O)O)NC(=O)[C@H](CC(=O)O)NC(=O)CNC1=O (single isomer, unassigned) [9/11, cyclo-S-2-L-(6-aminocaproyl)-Lys--dTyr--Arg--Gly--Asp--Cys--OH]	11.2		160		
N=C(N)NCCC[C@@H]1NC(=O)[C@@H](Cc2ccc(O)cc2)NC(=O)CSC[C@@H](C(=O)NCCCCN)NC(=O)[C@H](CC(=O)O)NC(=O)CNC1=O [8/12, cyclo-S-acetyl-dTyr--Arg--Gly--Asp--Cys--NH--X (X = butylamine)] ({CH2CO}-[dY]RGDC-{NH(CH2)4NH2}; thioether N-5)	70	0.94			
